Experimental data reported in patent publication US12011460B2, “Expansion of NK and DC cells in vivo mediating immune response” (UNIVERSITE DE MONTREAL, priority 2018, dated 2024).

How the values were obtained:
CD34 + CD45RA- cells = assay: Expansion of CD34+CD45RA- cells compared to DMSO (EC50); type: cell-based; settings: concentration of compound necessary to expand 50% more of CD34+CD45RA- cells as compared to cells treated with DMSO
[1] = test system: cord blood derived CD34+ cells; assay: Ex vivo culture of cord blood derived CD34+ cells, graft composition by flow; type: cell-based, human; settings: expanded cord blood; UM171 35 nM, SR1 500 nM

SMILES | EC50 (CD34 + CD45RA- cells) | dendritic cells population (CD86+CD34+) share of the graft [1]
COC(=O)c1ccc2c(c1)[nH]c1nc(Cc3cccc(CC(=O)O)c3)nc(NCCCN(C)CCCN)c12 [Compound 20] | 113 nM | –
CN(CCCN)CCCNc1nc(Cc2ccccc2Br)nc2[nH]c3cc(-c4nnn(C)n4)ccc3c12 [Compound 24] | 51 nM | –
Cn1nnc(-c2ccc3c(c2)[nH]c2ncnc(NCCCCN4CCCCC4)c23)n1 [Compound 29] | 36 nM | –
COC(=O)c1ccc2c(c1)[nH]c1nc(C(O)c3ccccc3)nc(NCCCN3CCCCC3)c12 (centres unmarked) [Compound 14] | 4 nM | –
COC(=O)c1ccc2c(c1)[nH]c1nc(Cc3cccc(F)c3)nc(NCCCN3CCCCC3)c12 [Compound 2] | 20 nM | –
C#Cc1cccc(Cc2nc(NCCN(C)CCN)c3c(n2)[nH]c2cc(-c4nnn(C)n4)ccc23)c1 [Compound 32] | 104 nM | –
CNC(=O)c1ccc2c(c1)[nH]c1nc(Cc3ccccc3)nc(NCCCN3CCCCC3)c12 [Compound 12] | 2440 nM | –
COC(=O)c1ccc2c(c1)[nH]c1nc(Cc3ccccc3)nc(NCCCN(C)CCCNc3ncnc4[nH]c5ccccc5c34)c12 [Compound 21] | 19 nM | –
COC(=O)c1ccc2c(c1)[nH]c1nc(Cc3ccccc3)nc(NCCCN(C)CC(O)COCc3ccccc3)c12 (centres unmarked) [Compound 11] | 101 nM | –
COC(=O)c1ccc2c(c1)[nH]c1nc(Cc3ccccc3)nc(SCCCN3CCCCC3)c12 [Compound 15] | 327 nM | –
Cn1nnc(-c2ccc3c(c2)[nH]c2ncnc(NCCCN4CCC(O)CC4)c23)n1 [Compound 28] | 277 nM | –
COC(=O)c1ccc2c(c1)[nH]c1nc(Cc3cccc(C(O)C(F)(F)F)c3)nc(NCCCN3CCCCC3)c12 (centres unmarked) [Compound 6] | 16 nM | –
COC(=O)c1ccc2c(c1)[nH]c1nc(C(=O)c3ccccc3)nc(SCCCN3CCCCC3)c12 [Compound 16] | 5 nM | –
CN(CCCNC(=O)COCCOCCN)CCCNc1nc(Cc2ccccc2)nc2[nH]c3cc(-c4nnn(C)n4)ccc3c12 [Compound 23] | 249 nM | –
COC(=O)c1ccc2c(c1)[nH]c1nc(Cc3cccs3)nc(NCCCN3CCCCC3)c12 [Compound 3] | 8 nM | –
COC(=O)c1ccc2c(c1)[nH]c1nc(Cc3cccnc3)nc(NCCCN3CCCCC3)c12 [Compound 4] | 14 nM | –
CN1CCN(c2ccc(CNc3nc(Cc4ccccc4)nc4[nH]c5cc(-c6nnn(C)n6)ccc5c34)cc2)CC1 [Compound 22] | 100 nM | –

SMILES | EC50 (CD34 + CD45RA- cells) | dendritic cells population (CD86+CD34+) share of the graft [1]
COC(=O)c1ccc2c(c1)[nH]c1nc(Cc3ccccc3)nc(NCCNS(C)(=O)=O)c12 [Compound 33] | 33 nM | –
CCOC(=O)c1ccc2c(c1)[nH]c1nc(Cc3ccccc3)nc(NCCCN3CCCCC3)c12 [Compound 5] | 154 nM | –
CCN(CC)CCN(CC)c1nc(Cc2ccccc2)nc2[nH]c3cc(C(=O)OC)cnc3c12 [Compound 31] | 394 nM | –
CC(C)n1cnc2c(NCCc3ccc(O)cc3)nc(-c3csc4ccccc34)nc21 [SR1] | – | less than 5%
COC(=O)c1ccc2c(c1)[nH]c1nc(C(OC)c3ccccc3)nc(NCCCN3CCCCC3)c12 (centres unmarked) [Compound 13] | 68 nM | –
Cn1nnc(-c2cnc3c(c2)[nH]c2nc(Cc4ccccc4)nc(N[C@H]4CC[C@H](N)CC4)c23)n1 [Compound 27] | 367 nM | –
COC(=O)c1ccc2c(c1)[nH]c1nc(Cc3ccccc3)nc(CCCCN3CCCCC3)c12 [Compound 17] | 15 nM | –
CN(CCC[N+](C)(C)C)c1nc(Cc2ccccc2)nc2[nH]c3cc(-c4nnn(C)n4)ccc3c12 [Compound 26] | 484 nM | –
COC(=O)c1ccc2c(c1)[nH]c1nc(Cc3cccc(CO)c3)nc(NCCCN(C)CCCN)c12 [Compound 19] | 38 nM | –
COC(=O)c1ccc2c(c1)[nH]c1nc(Cc3cccc(C)c3)nc(NCCCN3CCCCC3)c12 [Compound 1] | 38 nM | –
C#CCOC(CNc1nc(Cc2ccccc2)nc2[nH]c3cc(C(=O)OC)ccc3c12)CN1CCCCC1 (centres unmarked) [Compound 9] | 24 nM | –
COC(=O)c1ccc2c(c1)[nH]c1nc(Cc3cccc(C(=O)C(F)(F)F)c3)nc(NCCCN3CCCCC3)c12 [Compound 7] | 31 nM | –
COC(=O)c1ccc2c(c1)[nH]c1nc(C(C)c3ccccc3)nc(NCCCN3CCCCC3)c12 (centres unmarked) [Compound 18] | 67 nM | –
CNCCCNc1ncnc2[nH]c3cc(-c4nnn(C)n4)ccc3c12 [Compound 30] | 135 nM | –
COC(=O)c1ccc2c(c1)[nH]c1nc(Cc3ccccc3)nc(NCC(O)CN3CCCCC3)c12 (centres unmarked) [Compound 10] | 7 nM | –
COC(=O)c1ccc2c(c1)[nH]c1nc(Cc3ccc4ccccc4c3)nc(NCCCN3CCCCC3)c12 [Compound 8] | 150 nM | –
CN(CCCN)CCCNc1nc(Cc2cccc(Br)c2)nc2[nH]c3cc(-c4nnn(C)n4)ccc3c12 [Compound 25] | 115 nM | –

Further lines, with some results ahead:

EC50 (CD34 + CD45RA- cells) | SMILES | dendritic cells population (CD86+CD34+) share of the graft [1]
76 nM | COC(=O)c1ccc2c(c1)[nH]c1cc(Cc3cccc(OC)c3)nc(NCCCCN3CCCC3)c12 [Compound 34] | –
75 nM | COC(=O)c1ccc2c(c1)[nH]c1nc(Cc3ccccc3)nc(NCCNC3=NCCC3)c12 [Compound 59] | –
39 nM | COC(=O)c1ccc2c(c1)[nH]c1nc(Cc3ccccc3)nc(NCCCCCCCCN)c12 [Compound 41] | –
79 nM | COC(=O)c1ccc2c(c1)[nH]c1nc(Cc3ccccc3)nc(NCC3CCCN(C(=O)OC)C3)c12 (centres unmarked) [Compound 55] | –
68 nM | [H]/N=C(/N)NCCNc1nc(Cc2ccccc2)nc2[nH]c3cc(C(=O)OC)ccc3c12 [Compound 36] | –
4.8 nM | CCNCCNc1nc(Cc2ccccc2)nc2[nH]c3cc(C(=O)OC)ccc3c12 [Compound 57] | –
117 nM | COC(=O)c1ccc2c(c1)[nH]c1nc(CCc3ccccc3)nc(NCCCN(C)CC(O)C[N+](C)(C)C)c12 (centres unmarked) [Compound 53] | –
7 nM | COC(=O)c1ccc2c(c1)[nH]c1nc(Cc3ccccc3)nc(NCC3CCCNC3)c12 (centres unmarked) [Compound 52] | –
12 nM | COC(=O)c1ccc2c(c1)[nH]c1nc(Cc3ccccc3)nc(NCCN3CCOCC3)c12 [Compound 42] | –
79 nM | COC(=O)c1ccc2c(c1)[nH]c1nc(Cc3ccccc3)nc(NCCC#N)c12 [Compound 58] | –
41 nM | COC(=O)c1ccc2c(c1)[nH]c1nc(Cc3ccccc3)nc(NCCCN3C(=O)CCC3=O)c12 [Compound 49] | –
114 nM | COC(=O)c1ccc2c(c1)[nH]c1cc(Cc3ccsc3)nc(N[C@H]3CC[C@H](N)CC3)c12 [Compound 39] | –
26 nM | COC(=O)c1ccc2c(c1)[nH]c1nc(Cc3ccccc3)nc(NCCCO)c12 [Compound 47] | –
118 nM | COC(=O)c1ccc2c(c1)[nH]c1nc(Cc3ccccc3)nc(NCCCCO)c12 [Compound 54] | –
62 nM | CNS(=O)(=O)c1ccc(CNc2nc(Cc3ccccc3)nc3[nH]c4cc(C(=O)OC)ccc4c23)cc1 [Compound 51] | –
336 nM | COC(=O)c1ccc2c(c1)[nH]c1nc(Cc3ccccc3)nc(NCCN(C)CC(F)F)c12 [Compound 45] | –
61 nM | COC(=O)c1ccc2c(c1)[nH]c1nc(Cc3ccccc3)nc(NCCCN(C)CCCNC(=N)N)c12 [Compound 48] | –
44 nM | COC(=O)c1ccc2c(c1)[nH]c1cc(Cc3cccc(O)c3)nc(NCCCCN3CCCC3)c12 [Compound 35] | –
48 nM | COC(=O)c1ccc2c(c1)[nH]c1nc(Cc3ccccc3)nc(NCc3cnc(C)cn3)c12 [Compound 56] | –
10.1 nM | COC(=O)c1ccc2c(c1)[nH]c1nc(Cc3ccccc3)nc(NCCN(C(C)C)C(C)C)c12 [Compound 61] | –
2 nM | COC(=O)c1ccc2c(c1)[nH]c1nc(Cc3ccccc3)nc(NCCCCCN(C)C)c12 [Compound 40] | –
141 nM | Cn1nnc(-c2ccc3c(c2)[nH]c2nc(Cc4ccccc4)nc(NCCOCCO)c23)n1 [Compound 46] | –
59 nM | COC(=O)c1ccc2c(c1)[nH]c1nc(Cc3ccccc3)nc(NCC(O)CO)c12 (centres unmarked) [Compound 44] | –
23 nM | COC(=O)c1ccc2c(c1)[nH]c1nc(Cc3ccccc3)nc(NNc3ccc(S(C)(=O)=O)cc3)c12 [Compound 60] | –
263 nM | CNS(=O)(=O)c1cccc(Nc2ncnc3[nH]c4cc(C(=O)OC)ccc4c23)c1 [Compound 43] | –
704 nM | COC(=O)c1ccc2c(c1)[nH]c1cc(Cc3cccnc3)cc(NCCCN3CCOCC3)c12 [Compound 38] | –
83 nM | COC(=O)c1ccc2c(c1)[nH]c1nc(Cc3ccccc3)nc(NCCN(C)C(C)=O)c12 [Compound 37] | –
67 nM | COC(=O)c1ccc2c(c1)[nH]c1nc(Cc3ccccc3)nc(NCCS(N)(=O)=O)c12 [Compound 50] | –
